How the values were obtained:
MT4 = assay: Cytotoxicity against human MT4 cells assessed as reduction in cell viability incubated for 5 days by spectrophotometric based MTT assay; format: functional; conditions: MT4, 120 h, time 5 day
[1] = biological target: Structural capsid protein (Human immunodeficiency virus 1) (UniProt Q76129); assay: Binding affinity to monomeric HIV-1 NL4.3 capsid protein assessed as residence time by SPR assay; conditions: filed as modulator
[2] = system: Human immunodeficiency virus 1; assay: Anti-HIV activity against HIV-1 IIIB infected in human MT4 cells assessed as protection against virus-induced cytopathic effect incubated for 5 days by spectrophotometric based MTT assay; conditions: Human immunodeficiency virus 1, IIIB, MT4, 120 h
[3] = biological target: Structural capsid protein (Human immunodeficiency virus 1) (UniProt Q76129); assay: Binding affinity to hexameric HIV-1 NL4.3 capsid protein assessed as residence time by SPR assay; conditions: filed as modulator
[4] = Metabolic stability in human liver microsomes assessed as half life at 1 uM incubated for 60 mins by LC-MS/MS analysis; format: ADME, Microsome
[5] = system: Human immunodeficiency virus 1; assay: Anti-HIV activity against wild type HIV-1 IIIB infected in human MT4 cells assessed as protection against virus-induced cytopathic effect incubated for 5 days by spectrophotometric based MTT assay; format: functional, organism-based; conditions: Human immunodeficiency virus 1, IIIB, MT4, 120 h
[6] = biological target: Structural capsid protein (Human immunodeficiency virus 1) (UniProt Q76129); assay: Binding affinity to hexameric HIV-1 NL4.3 capsid protein assessed as dissociation rate (Koff) by SPR assay; conditions: filed as modulator
[7] = system: Human immunodeficiency virus 2; assay: Anti-HIV activity against HIV-2 ROD infected in human MT-4 cells assessed as protection against virus-induced cytopathic effect incubated for 5 days by spectrophotometric based MTT assay; format: functional, organism-based; conditions: Human immunodeficiency virus 2, ROD, MT4, 120 h
[8] = Metabolic stability in human liver microsomes assessed as intrinsic clearance at 1 uM incubated for 60 mins by LC-MS/MS analysis; format: ADME, Microsome; conditions: read-out: CLH
[9] = biological target: Structural capsid protein (Human immunodeficiency virus 1) (UniProt Q76129); assay: Binding affinity to monomeric HIV-1 NL4.3 capsid protein assessed as dissociation rate (Koff) by SPR assay; conditions: filed as modulator

Chain of Structural capsid protein (Human immunodeficiency virus 1) (Q76129 as listed by the source): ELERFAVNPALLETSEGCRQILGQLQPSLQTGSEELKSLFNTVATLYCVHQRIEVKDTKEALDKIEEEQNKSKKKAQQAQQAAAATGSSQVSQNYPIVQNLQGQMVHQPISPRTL

For Cc1[nH]c2ccccc2c1CC(=O)N[C@@H](Cc1ccccc1)C(=O)N(C)c1ccccc1, the CC50 (MT4) was 134000 nM, the TIME [1] was 0.00125 h and the EC50 [2] was 800 nM. It also gave a TIME [3] of 0.000617 h, a half-life at 1 µM [4] of 42 s and an EC50 [5] of 1060 nM. The K [6] was 4.48 10^-1/s, the EC50 [7] was 2840 nM and the CLint scaled at 1 µM [8] was 2110 mL/min/kg. For the same compound, the K [9] was 2.21 10^-1/s.

From ChEMBL document CHEMBL6083251, “"Pseudosubstrate Envelope"/Free Energy Perturbation-Guided Design and Mechanistic Investigations of Benzothiazole HIV Capsid Modulators with High Ligand Efficiency” (J Med Chem, 2024)
